Measured values: PubChem BioAssay AID1963873 (Molecular Pharmacology Branch, DTP, NCI, 2024)

Tested on: 276233-004-R-J1-PDC KRAS spheroids with HUVEC/MSC, viability
Test: Anticancer human tumor 276233-004-R-J1-PDC patient-derived colon adenocarcinoma cell line growth inhibition [KRAS2]
Conditions: for IC50: curve of first compound; for viability, T/C: stronger effect = lower value
How it was run: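 KRAS-mutant tumor cells were grown as spheroids with HUVEC endothelial cells and human MSCs as stroma. Targeted agents were tested alone and with KRAS pathway inhibitors. Doses started at or near clinical Cmax, or 10 microM, descending half-log.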

[1] = second compound 0.1 µM, first compound 0.0316 µM
[2] = second compound 0.1 µM, first compound 0.1 µM
[3] = second compound 0.1 µM, first compound 0.316 µM
[4] = second compound 0.1 µM, first compound 1 µM
[5] = second compound 0.1 µM, first compound 3.16 µM
[6] = second compound 0.1 µM, first compound 10 µM
[7] = second compound 0.316 µM, first compound 0.0316 µM
[8] = second compound 0.316 µM, first compound 0.1 µM
[9] = second compound 0.316 µM, first compound 0.316 µM
[10] = second compound 0.316 µM, first compound 1 µM
[11] = second compound 0.316 µM, first compound 3.16 µM
[12] = second compound 0.316 µM, first compound 10 µM
[13] = second compound 1 µM, first compound 0.0316 µM
[14] = second compound 1 µM, first compound 0.1 µM
[15] = second compound 1 µM, first compound 0.316 µM
[16] = second compound 1 µM, first compound 1 µM
[17] = second compound 1 µM, first compound 3.16 µM
[18] = second compound 1 µM, first compound 10 µM
[19] = second compound 3.16 µM, first compound 0.0316 µM
[20] = second compound 3.16 µM, first compound 0.1 µM
[21] = second compound 3.16 µM, first compound 0.316 µM
[22] = second compound 3.16 µM, first compound 1 µM
[23] = second compound 3.16 µM, first compound 3.16 µM
[24] = second compound 3.16 µM, first compound 10 µM
[25] = second compound 10 µM, first compound 0.0316 µM
[26] = second compound 10 µM, first compound 0.1 µM
[27] = second compound 10 µM, first compound 0.316 µM
[28] = second compound 10 µM, first compound 1 µM
[29] = second compound 10 µM, first compound 3.16 µM
[30] = second compound 10 µM, first compound 10 µM
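Further: cells exposed to agents for seven days before viability read.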
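Wherever viability, T/C is given: 100% = DMSO vehicle control wells and lower values mean fewer viable cells.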

## COc1cc2nccc(Oc3ccc(NC(=O)C4(C(=O)Nc5ccc(F)cc5)CC4)cc3)c2cc1OC + CC1OCC2(CCN(c3cnc(Sc4ccnc(N)c4Cl)c(N)n3)CC2)C1N
Second compound 0.1 µM
  IC50: > 10 µM
Second compound 0.316 µM
  IC50: > 10 µM
Second compound 1 µM
  IC50: > 10 µM
Second compound 3.16 µM
  IC50: > 10 µM
Second compound 10 µM
  IC50: 3.58 µM
[1]
  viability, T/C: 78.9%
[2]
  viability, T/C: 77.1%
[3]
  viability, T/C: 85.4%
[4]
  viability, T/C: 75.1%
[5]
  viability, T/C: 80%
[6]
  viability, T/C: 77.6%
[7]
  viability, T/C: 73.5%
[8]
  viability, T/C: 64.7%
[9]
  viability, T/C: 69.5%
[10]
  viability, T/C: 72.7%
[11]
  viability, T/C: 81.9%
[12]
  viability, T/C: 59.6%
[13]
  viability, T/C: 65%
[14]
  viability, T/C: 67.4%
[15]
  viability, T/C: 60.7%
[16]
  viability, T/C: 75.7%
[17]
  viability, T/C: 70.9%
[18]
  viability, T/C: 52.7%
[19]
  viability, T/C: 55.5%
[20]
  viability, T/C: 67.9%
[21]
  viability, T/C: 55.1%
[22]
  viability, T/C: 61.7%
[23]
  viability, T/C: 72.2%
[24]
  viability, T/C: 44%
[25]
  viability, T/C: 71.8%
[26]
  viability, T/C: 59.7%
[27]
  viability, T/C: 56.7%
[28]
  viability, T/C: 53%
[29]
  viability, T/C: 58.2%
[30]
  viability, T/C: 42.6%

## COc1cc(Nc2ncc3c(n2)-c2ccc(Cl)cc2C(c2c(F)cccc2OC)=NC3)ccc1C(=O)O + C=CC(=O)N1CCN(c2nc(OCC3CCCN3C)nc3c2CCN(c2cccc4cccc(C)c24)C3)CC1CC#N
Second compound 0.0316 µM
  IC50: > 10 µM
Second compound 0.1 µM
  IC50: > 10 µM
Second compound 0.316 µM
  IC50: > 10 µM
Second compound 1 µM
  IC50: > 10 µM
Second compound 3.16 µM
  IC50: 2.12 µM
Second compound 0.0316 µM, first compound 0.0316 µM
  viability, T/C: 98.9%
Second compound 0.0316 µM, first compound 0.1 µM
  viability, T/C: 85.5%
Second compound 0.0316 µM, first compound 0.316 µM
  viability, T/C: 89.2%
Second compound 0.0316 µM, first compound 1 µM
  viability, T/C: 86.2%
Second compound 0.0316 µM, first compound 3.16 µM
  viability, T/C: 77.9%
Second compound 0.0316 µM, first compound 10 µM
  viability, T/C: 77%
[1]
  viability, T/C: 85.9%
[2]
  viability, T/C: 91.1%
[3]
  viability, T/C: 82.2%
[4]
  viability, T/C: 73.6%
[5]
  viability, T/C: 83.3%
[6]
  viability, T/C: 81%
[7]
  viability, T/C: 94.5%
[8]
  viability, T/C: 79%
[9]
  viability, T/C: 70.9%
[10]
  viability, T/C: 67.8%
[11]
  viability, T/C: 83.1%
[12]
  viability, T/C: 63.9%
[13]
  viability, T/C: 79.8%
[14]
  viability, T/C: 81.3%
[15]
  viability, T/C: 94.9%
[16]
  viability, T/C: 96.9%
[17]
  viability, T/C: 67.2%
[18]
  viability, T/C: 70.5%
[19]
  viability, T/C: 45.9%
[20]
  viability, T/C: 64%
[21]
  viability, T/C: 55.7%
[22]
  viability, T/C: 54.1%
[23]
  viability, T/C: 47.4%
[24]
  viability, T/C: 26.9%

## CCNC(=O)CC1N=C(c2ccc(Cl)cc2)c2cc(OC)ccc2-n2c(C)nnc21 (stereo not given) + CC1OCC2(CCN(c3cnc(Sc4ccnc(N)c4Cl)c(N)n3)CC2)C1N
Second compound 0.1 µM
  IC50: > 10 µM
Second compound 0.316 µM
  IC50: 7.12 µM
Second compound 1 µM
  IC50: 3.16 µM
Second compound 3.16 µM
  IC50: 0.392 µM
Second compound 10 µM
  IC50: 0.53 µM
[1]
  viability, T/C: 94.5%
[2]
  viability, T/C: 85.6%
[3]
  viability, T/C: 71.5%
[4]
  viability, T/C: 66.8%
[5]
  viability, T/C: 56.4%
[6]
  viability, T/C: 72.8%
[7]
  viability, T/C: 89%
[8]
  viability, T/C: 73.1%
[9]
  viability, T/C: 73.6%
[10]
  viability, T/C: 58.2%
[11]
  viability, T/C: 52.5%
[12]
  viability, T/C: 49.1%
[13]
  viability, T/C: 79.8%
[14]
  viability, T/C: 71.5%
[15]
  viability, T/C: 63.9%
[16]
  viability, T/C: 52.5%
[17]
  viability, T/C: 46.9%
[18]
  viability, T/C: 52.2%
[19]
  viability, T/C: 72.6%
[20]
  viability, T/C: 71.6%
[21]
  viability, T/C: 51.5%
[22]
  viability, T/C: 44.4%
[23]
  viability, T/C: 43.3%
[24]
  viability, T/C: 41.4%
[25]
  viability, T/C: 55%
[26]
  viability, T/C: 56.6%
[27]
  viability, T/C: 52.2%
[28]
  viability, T/C: 48.2%
[29]
  viability, T/C: 41.6%
[30]
  viability, T/C: 42.4%

## CCNC(=O)CC1N=C(c2ccc(Cl)cc2)c2cc(OC)ccc2-n2c(C)nnc21 (stereo not given) + CNCc1ccccc1-c1csc(C(C)Nc2nc(C)nc3cc(OC)c(OC)cc23)c1
Second compound 0.1 µM
  IC50: > 10 µM
Second compound 0.316 µM
  IC50: > 10 µM
Second compound 1 µM
  IC50: > 10 µM
Second compound 3.16 µM
  IC50: < 0.0316 µM
Second compound 10 µM
  IC50: < 0.0316 µM
[1]
  viability, T/C: 86.7%
[2]
  viability, T/C: 84.3%
[3]
  viability, T/C: 68.2%
[4]
  viability, T/C: 68.3%
[5]
  viability, T/C: 72.8%
[6]
  viability, T/C: 54.4%
[7]
  viability, T/C: 88.2%
[8]
  viability, T/C: 82.8%
[9]
  viability, T/C: 85.5%
[10]
  viability, T/C: 73.5%
[11]
  viability, T/C: 72.7%
[12]
  viability, T/C: 67.1%
[13]
  viability, T/C: 87.3%
[14]
  viability, T/C: 71.2%
[15]
  viability, T/C: 67.2%
[16]
  viability, T/C: 61%
[17]
  viability, T/C: 56.8%
[18]
  viability, T/C: 66.3%
[19]
  viability, T/C: 0.46%
[20]
  viability, T/C: 0.86%
[21]
  viability, T/C: 2.72%
[22]
  viability, T/C: 0.85%
[23]
  viability, T/C: 2.19%
[24]
  viability, T/C: 1.93%
[25]
  viability, T/C: 0.24%
[26]
  viability, T/C: 1.77%
[27]
  viability, T/C: 0.22%
[28]
  viability, T/C: 0.26%
[29]
  viability, T/C: 0.43%
[30]
  viability, T/C: 0.23%
